Read-outs that look alike come from different tables or passages of the source.
Columns and labels:
human CRTH2 [1] = molecular target: T1, human CRTH2 (Homo sapiens, UniProt Q9Y5Y4); assay: Human CRTH2 receptor binding assay (Assay 2); conditions: binding to puromycin-resistant human CRTH2 L1.2 transfectants
T1 construct: expressed in transfected cells; host or cells: L1.2 cells, pEAK expression vector, puromycin-selected
T1 sequence (Q9Y5Y4 1-395): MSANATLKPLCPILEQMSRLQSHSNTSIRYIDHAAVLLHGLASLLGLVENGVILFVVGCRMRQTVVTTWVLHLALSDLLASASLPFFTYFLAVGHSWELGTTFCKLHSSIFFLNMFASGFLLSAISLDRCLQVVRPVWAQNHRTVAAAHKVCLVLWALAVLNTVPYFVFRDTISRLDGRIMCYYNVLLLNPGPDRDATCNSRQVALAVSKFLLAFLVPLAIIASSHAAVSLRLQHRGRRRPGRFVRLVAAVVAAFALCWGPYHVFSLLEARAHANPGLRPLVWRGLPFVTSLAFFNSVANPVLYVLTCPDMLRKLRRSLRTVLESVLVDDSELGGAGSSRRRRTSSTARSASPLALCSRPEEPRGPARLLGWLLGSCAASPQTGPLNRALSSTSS
Description: Human CRTH2 cDNA was amplified from human eosinophil cDNA with gene specific primers containing restriction sites for cloning into pEAK vector (Edge Bio Systems). The human CRTH2 cDNA was cloned into the mammalian expression vector pEAK. This expression plasmid (40 μg) was transfected into L1.2 cells, at a cell density of 1×10^7 cells/500 μl, by using electroporation apparatus (Gene Pulser II, BioRad) at 250V/1,000 μF. One day after the transfection, puromycin (1 μg/ml, Sigma) was added into the cell culture plates. Two weeks after the transfection, grown cells were picked up for further growth.
[Human CRTH2 Receptor Binding Assay] (Assay 2)
CRTH2 transfectants were washed once with PBS and resuspended in binding buffer (50 mM Tris-HCl, pH7.4, 40 mM MgCl2, 0.1% BSA, 0.1% NaN3). 100 μl of cell suspension (2×10^5 cells), [^3H]-labeled PGD2, and various concentrations of test compound were then mixed in a 96-well U-bottom polypropylene plate and incubated for […] at room temperature to allow binding to occur. […] Scintillant was added to the filtration plate, and radioactivity remaining on the filter was measured by TopCount (Packard), a scintillation counter. Non-specific binding was determined by incubating the cell suspension and [^3H]-labeled PGD2 in the presence of 1 μM of unlabeled PGD2.

human CRTH2 [2] = molecular target: T1, human CRTH2; assay: Measurement of Ca2+ mobilization in the human CRTH2-transfected L1.2 cell line (Assay 1); format: cell-based
Summary of the method: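 Human CRTH2 was stably expressed in L1.2 cells (puromycin-selected) loaded with Fluo-3AM (1 μM final) for 60 min at room temperature. Buffer was 20 mM HEPES pH 7.6, 0.1% BSA, 1 mM probenecid in Hanks'. Cells (2×10^5/well) got compound for 5 min at RT, with fluorescence at 480 nm. IC50 bins: A ≤10 nM, B ≤100 nM, C ≤500 nM, D above; samples were solid-phase products of about 40–90% purity.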

[3] = PGD2-induced Ca2+ mobilization in CRTH2-transfected L1.2 cells, compounds as yielded by solid phase synthesis, purity about 40 to 90%, read-out: Activity class

Structure (SMILES): CCCCC[C@H](O)/C=C/[C@H]1C(=O)C[C@H](O)[C@@H]1C/C=C\CCCC(=O)O [[^3H]-labeled PGD2]
- Kd (human CRTH2 [1]): 0.0063 µM

Structure (SMILES): O=C(O)Cc1c(Cl)nc(Cc2ccc(NC(=O)c3ccc([N+](=O)[O-])cc3)cc2)nc1N1CCCC1 [Example 1-53]
- IC50 (human CRTH2 [2]; [3]): 0.01 to 0.1 µM
- melting point: 134 °C

Structure (SMILES): CN(C)c1nc(Cc2ccc(NC(=O)c3ccc(Cl)c(Cl)c3)cc2)nc(N2CCCC2)c1CC(=O)O [Example 7-13]
- IC50 (human CRTH2 [2]; [3]): 0.1 to 0.5 µM
- melting point: 150 to 152 °C

Structure (SMILES): O=C(O)Cc1cnc(Cc2ccc(NC(=O)CC3CC3)cc2)nc1N1CCCC1 [Example 2-33]
- IC50 (human CRTH2 [2]; [3]): 0.1 to 0.5 µM
- melting point: 145 to 148 °C (dec.)

Structure (SMILES): COc1ccc(C(=O)Nc2ccc(Cc3ncc(CC(=O)O)c(N(C)C)n3)cc2)cc1 [Example 2-7]
- IC50 (human CRTH2 [2]; [3]): < 0.01 µM
- melting point: 111 °C

Structure (SMILES): CN(C)c1nc(Cc2ccc(NC(=O)c3cccc(Cl)c3)cc2)nc(Cl)c1CC(=O)O [Example 1-47]
- IC50 (human CRTH2 [2]; [3]): < 0.01 µM
- melting point: > 108 °C

Structure (SMILES): CN(C)c1nc(Cc2ccc(NC(=O)OCc3ccc(F)cc3)cc2)ncc1CC(=O)O [Example 9-2, {4-(dimethylamino)-2-[4-({[(4-fluorobenzyl)oxy]carbonyl}amino)benzyl]pyrimidin-5-yl}acetic acid]
- IC50 (human CRTH2 [2]): < 0.01 µM
- melting point: 95 to 97 °C

Structure (SMILES): CN(CC(=O)NC1CCCC1)c1nc(Cc2ccc(NC(=O)Cc3ccc(-c4ccccc4)cc3)cc2)nc(Cl)c1CC(=O)O [Example 1-24]
- IC50 (human CRTH2 [2]; [3]): 0.1 to 0.5 µM
- melting point: 124 °C

Structure (SMILES): CN(C)c1nc(Cc2ccc(NC(=O)COc3ccccc3)cc2)nc(N2CCOCC2)c1CC(=O)O [Example 7-26]
- IC50 (human CRTH2 [2]; [3]): > 0.5 µM
- melting point: 172 to 175 °C

Structure (SMILES): CC(C)(C)CC(=O)Nc1ccc(Cc2ncc(CC(=O)O)c(N3CCCC3)n2)cc1 [Example 2-35]
- IC50 (human CRTH2 [2]; [3]): 0.01 to 0.1 µM
- melting point: 147 to 150 °C

Structure (SMILES): COc1ccc(C(=O)Nc2ccc(Cc3ncc(CC(=O)O)c(N(C)C)n3)cc2)cc1OC [Example 2-12]
- IC50 (human CRTH2 [2]; [3]): 0.1 to 0.5 µM
- melting point: 106 to 110 °C

Structure (SMILES): COc1ccc(C(=O)Nc2ccc(Cc3nc(Cl)c(CC(=O)O)c(N4CCCC4)n3)cc2)cc1[N+](=O)[O-] [Example 1-58]
- IC50 (human CRTH2 [2]; [3]): < 0.01 µM
- melting point: 118 °C

Structure (SMILES): CN(C)c1nc(Cc2ccccc2NC(=O)c2ccc3ccccc3c2)nc(Cl)c1CC(=O)O [Example 1-50]
- IC50 (human CRTH2 [2]; [3]): > 0.5 µM
- melting point: 295 °C

Source: patent US7960393B2, “Pyrimidine derivatives useful for the treatment of diseases mediated by CRTH2” (Actimis Pharmaceuticals, Inc., priority 2002, dated 2011)
